Assays:
Experiment in all cases: relative viability (nuclei count vs DMSO), 5 days (fraction); higher = more cells survive
[1] = tested on: LU99A
Outline: (§1)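 Lung cancer cell lines, seeded in 1536-well plates, were treated the following day by pin tool with a single drug or with five library-drug doses (not always all listed) in √10 steps on top of a fixed anchor-drug dose. Cells were fixed and nuclei stained in one step after 5 days, and nuclei were counted. Relative viability is the nuclei count for treated wells divided by that for vehicle wells, reported as medians of duplicate plates.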

[2] = tested on: NCI-H2405
Outline: as §1

[3] = tested on: EPLC-272H
Outline: as §1

[4] = tested on: PC-3 [JPC-3]
Outline: as §1

[5] = tested on: NCI-H441
Outline: as §1

[6] = tested on: EKVX
Outline: as §1

[7] = tested on: SW 1573
Outline: as §1

[8] = tested on: NCI-H2228
Outline: as §1

[9] = tested on: LK-2
Outline: as §1

[10] = tested on: LXF-289
Outline: as §1

[11] = tested on: NCI-H522
Outline: as §1

[12] = tested on: HOP-62
Outline: as §1

[13] = tested on: NCI-H1993
Outline: as §1

[14] = tested on: NCI-H1355
Outline: as §1

[15] = tested on: LCLC-97TM1
Outline: as §1

[16] = tested on: SK-LU-1
Outline: as §1

[17] = tested on: NCI-H2170
Outline: as §1

[18] = tested on: HCC-827
Outline: as §1

[19] = tested on: H3255
Outline: as §1

[20] = tested on: UMC-11
Outline: as §1

[21] = tested on: NCI-H3122
Outline: as §1

[22] = tested on: NCI-H1650
Outline: as §1

[23] = tested on: ChaGo-K-1
Outline: as §1

`Cc1csc(=NC2CCCCC2)n1/N=C/c1ccc(O)c(O)c1O` [MIM1] + O=C(CCCCCCC(=O)Nc1ccccc1)NO [Vorinostat] (partner 1 µM) was tested, and the relative viability ([1]; first compound 0.2 µM) was 0.515, the relative viability ([1]; first compound 0.6325 µM) was 0.435 and the relative viability ([1]; first compound 2 µM) was 0.463. It also gave a relative viability ([1]; first compound 6.325 µM) of 0.387, a relative viability ([1]; first compound 20 µM) of 0.119 and a relative viability ([2]; first compound 0.2 µM) of 1.01. For the same molecule, the relative viability ([2]; first compound 0.6325 µM) was 0.964, the relative viability ([2]; first compound 2 µM) was 1.11 and the relative viability ([2]; first compound 6.325 µM) was 0.749. The relative viability ([2]; first compound 20 µM) was 0.416, the relative viability ([3]; first compound 0.2 µM) was 0.509 and the relative viability ([3]; first compound 0.6325 µM) was 0.523. It also gave a relative viability ([3]; first compound 2 µM) of 0.343, a relative viability ([3]; first compound 6.325 µM) of 0.125 and a relative viability ([3]; first compound 20 µM) of 0.126. It also gave a relative viability ([4]; first compound 0.2 µM) of 0.776, a relative viability ([4]; first compound 0.6325 µM) of 0.714 and a relative viability ([4]; first compound 2 µM) of 0.726. For the same molecule, the relative viability ([4]; first compound 6.325 µM) was 0.657, the relative viability ([4]; first compound 20 µM) was 0.376 and the relative viability ([5]; first compound 0.2 µM) was 0.748. It also gave a relative viability ([5]; first compound 0.6325 µM) of 0.798, a relative viability ([5]; first compound 2 µM) of 0.974 and a relative viability ([5]; first compound 6.325 µM) of 0.212. It also gave a relative viability ([5]; first compound 20 µM) of 0.191, a relative viability ([6]; first compound 0.2 µM) of 0.609 and a relative viability ([6]; first compound 2 µM) of 0.707. It also gave a relative viability ([6]; first compound 6.325 µM) of 0.473, a relative viability ([6]; first compound 20 µM) of 0.265 and a relative viability ([7]; first compound 0.2 µM) of 0.806. The relative viability ([7]; first compound 0.6325 µM) was 0.668, the relative viability ([7]; first compound 2 µM) was 0.773 and the relative viability ([7]; first compound 6.325 µM) was 0.573. For the same molecule, the relative viability ([7]; first compound 20 µM) was 0.131, the relative viability ([8]; first compound 0.2 µM) was 0.641 and the relative viability ([8]; first compound 0.6325 µM) was 0.909. The relative viability ([8]; first compound 2 µM) was 0.589, the relative viability ([8]; first compound 6.325 µM) was 0.19 and the relative viability ([8]; first compound 20 µM) was 0.206. It also gave a relative viability ([9]; first compound 0.2 µM) of 0.363, a relative viability ([9]; first compound 0.6325 µM) of 0.272 and a relative viability ([9]; first compound 2 µM) of 0.304. The relative viability ([9]; first compound 6.325 µM) was 0.562, the relative viability ([9]; first compound 20 µM) was 0.203 and the relative viability ([10]; first compound 0.2 µM) was 0.777. The relative viability ([10]; first compound 0.6325 µM) was 0.462, the relative viability ([10]; first compound 2 µM) was 0.665 and the relative viability ([10]; first compound 6.325 µM) was 0.499. It also gave a relative viability ([10]; first compound 20 µM) of 0.304, a relative viability ([11]; first compound 0.2 µM) of 0.858 and a relative viability ([11]; first compound 0.6325 µM) of 0.916. For the same molecule, the relative viability ([11]; first compound 2 µM) was 0.91, the relative viability ([11]; first compound 6.325 µM) was 0.891 and the relative viability ([11]; first compound 20 µM) was 0.345. For the same molecule, the relative viability ([12]; first compound 0.2 µM) was 0.655, the relative viability ([12]; first compound 0.6325 µM) was 0.469 and the relative viability ([12]; first compound 2 µM) was 0.541. It also gave a relative viability ([12]; first compound 6.325 µM) of 0.379, a relative viability ([12]; first compound 20 µM) of 0.0827 and a relative viability ([13]; first compound 0.2 µM) of 0.851. The relative viability ([13]; first compound 0.6325 µM) was 0.601, the relative viability ([13]; first compound 2 µM) was 0.601 and the relative viability ([13]; first compound 6.325 µM) was 0.348. For the same molecule, the relative viability ([13]; first compound 20 µM) was 0.413, the relative viability ([14]; first compound 0.2 µM) was 0.673 and the relative viability ([14]; first compound 0.6325 µM) was 0.604. It also gave a relative viability ([14]; first compound 2 µM) of 0.693, a relative viability ([14]; first compound 6.325 µM) of 0.544 and a relative viability ([14]; first compound 20 µM) of 0.487. The relative viability ([15]; first compound 0.2 µM) was 0.594, the relative viability ([15]; first compound 0.6325 µM) was 0.23 and the relative viability ([15]; first compound 2 µM) was 0.719. For the same molecule, the relative viability ([15]; first compound 6.325 µM) was 0.236, the relative viability ([15]; first compound 20 µM) was 0.0643 and the relative viability ([16]; first compound 0.2 µM) was 0.764. The relative viability ([16]; first compound 0.6325 µM) was 0.837, the relative viability ([16]; first compound 2 µM) was 0.957 and the relative viability ([16]; first compound 6.325 µM) was 0.623. The relative viability ([16]; first compound 20 µM) was 0.393, the relative viability ([17]; first compound 0.2 µM) was 0.786 and the relative viability ([17]; first compound 0.6325 µM) was 0.696. For the same molecule, the relative viability ([17]; first compound 2 µM) was 0.748, the relative viability ([17]; first compound 6.325 µM) was 0.479 and the relative viability ([17]; first compound 20 µM) was 0.138. For the same molecule, the relative viability ([18]; first compound 0.2 µM) was 0.871, the relative viability ([18]; first compound 0.6325 µM) was 0.731 and the relative viability ([18]; first compound 2 µM) was 0.777. The relative viability ([18]; first compound 6.325 µM) was 0.231, the relative viability ([18]; first compound 20 µM) was 0.349 and the relative viability ([19]; first compound 0.2 µM) was 0.776. For the same molecule, the relative viability ([19]; first compound 0.6325 µM) was 0.901, the relative viability ([19]; first compound 2 µM) was 0.759 and the relative viability ([19]; first compound 6.325 µM) was 0.67. It also gave a relative viability ([19]; first compound 20 µM) of 0.321, a relative viability ([20]; first compound 0.2 µM) of 0.501 and a relative viability ([20]; first compound 0.6325 µM) of 0.392. It also gave a relative viability ([20]; first compound 2 µM) of 0.438, a relative viability ([20]; first compound 6.325 µM) of 0.243 and a relative viability ([20]; first compound 20 µM) of 0.147. The relative viability ([21]; first compound 0.2 µM) was 0.959, the relative viability ([21]; first compound 0.6325 µM) was 0.894 and the relative viability ([21]; first compound 2 µM) was 1.02. It also gave a relative viability ([21]; first compound 6.325 µM) of 0.618, a relative viability ([21]; first compound 20 µM) of 0.127 and a relative viability ([22]; first compound 0.2 µM) of 0.617. It also gave a relative viability ([22]; first compound 0.6325 µM) of 0.562, a relative viability ([22]; first compound 2 µM) of 0.451 and a relative viability ([22]; first compound 6.325 µM) of 0.119. It also gave a relative viability ([22]; first compound 20 µM) of 0.179, a relative viability ([23]; first compound 0.2 µM) of 0.714 and a relative viability ([23]; first compound 0.6325 µM) of 0.449. It also gave a relative viability ([23]; first compound 2 µM) of 0.699, a relative viability ([23]; first compound 6.325 µM) of 0.543 and a relative viability ([23]; first compound 20 µM) of 0.157.

— the supplement of paper PMC10307832
